Test system: Zymosan Induced Inflammation
Test: Zymosan-induced paw inflammation (arthritis) in rats, percent volume increase of the paw
Type: in vivo, rat
Conditions: for % Oedema Volume change: 3.6 × 10^-4 mg/g IP vs control; for % Volume Increase, Mean of 3 experiments / % Volume Increase: 3.6 × 10^-4 mg/g IP
Source text: A reversible arthritic condition was induced according to known procedures for the Zymosan-induced arthritis (See J. P. Tarayre, A. Delphon, et al., Pharmacological studies in zymosan inflammation in rats and mice, I: Zymosan-induced paw edema in rat and mice, Pharmacological Research, 21, (#4) 375-384 (1989); Takuo Sato, Yoshitaka Ino, et al., Inhibitory effects of a novel synthetic protease inhibitor (FUT-175), on the paw edema in rats and Zymosan-induced compliment activation in vitro, Japan J. Pharmacol., 42,587-589 (1986); David K. Gremmell, et al., Comparative effects of drugs on four paw edema models on the rat, Agents and Actions 4, (#1) 107-116 (1979); and D. C. Keystone, et al., Zymosan-induced arthritis: A model of chronic proliferative arthritis following activation of the alternative pathway of compliment, Arthritis and Rheumatism 20 (#7) 1396-1401 (1977)).
Each rat (250 g each) was kept in a restraining cage with light ether anesthesia until the administration of the drug. The procedure involves the intramuscular (IM) injection of 1 mg of Zymosan in 50 μL (microliters) of normal saline in the pad of a hind paw of the rat. Swelling becomes evident within 20 minutes and reaches a maximum within 1.5 hours. The swelling disappears after 24 hours. In the Figures the reversal to normal size of the paw within 24 hours is not shown. The degree of swelling is measured by a water displacement method and the percent (%) of volume increase of the paw is plotted against time (see J. P. Tarayre, A. Delphon, et al., Pharmacological studies in zymosan inflammation in rats and mice. I: Zymosan-induced paw edema in rat and mice, Pharmaco-logical Research, 21, (#4) 375-384 (1989); Takuo Sato, Yoshitaka Ino, et al., Inhibitory effects of a novel synthetic protease inhibitor (FUT-175), on the paw edema in rats and Zymosan-induced compliment activation in vitro, Japan J. Pharmacol., 42, 587-589 (1986)).
Control was conducted by injecting I.P. 100 μl of propylene glycol (the vehicle) 15 min. prior to Zymosan administration. […] Data from tables 1 and 1a are plotted in FIGS. 1 and 1a respectively.
In the experimental procedure the drug [PC-16, […] (FIG. 2) or 90 μg/rat (FIG. 3)] is dissolved in 100 μL of propylene glycol and is injected IP to the rats. Fifteen minutes later the Zymosan (1mg/50 μL of normal saline) solution is injected IM into the paw of the rats. The degree of swelling is subsequently measured at various time intervals for a period of 24 hours and is reported up to 4 hours.

SMILES: CCCCNC(=O)Sc1nnnn1-c1ccccc1 [PC-16]
- percent volume increase of rat paw (36 μg/kg IP 15 min prior to Zymosan, 1.5 hour, control 60%): 20%
- swelling of rat paw (360 μg/kg IP 15 min prior to Zymosan): practically no swelling
- % Oedema Volume change (10 min): -85.0%
- % Oedema Volume change (20 min): -94.4%
- % Oedema Volume change (30 min): -94.2%
- % Oedema Volume change (40 min): -94.7%
- % Oedema Volume change (50 min): -95.1%
- % Oedema Volume change (60 min): -94.9%
- % Oedema Volume change (65 min): -94.8%
- % Oedema Volume change (70 min): -94.6%
- % Oedema Volume change (80 min): -93.8%
- % Oedema Volume change (95 min): -94.0%
- % Oedema Volume change (100 min): -94.3%
- % Oedema Volume change (105 min): -94.1%
- % Oedema Volume change (115 min): -93.7%
- % Oedema Volume change (120 min): -93.3%
- % Oedema Volume change (130 min): -94.1%
- % Oedema Volume change (135 min): -93.2%
- % Oedema Volume change (145 min): -92.6%
- % Oedema Volume change (150 min): -91.9%
- % Oedema Volume change (160 min): -91.6%
- % Oedema Volume change (175 min): -91.5%
- % Oedema Volume change (190 min): -91.9%
- % Oedema Volume change (200 min): -91.7%
- % Oedema Volume change (205 min): -91.3%
- % Oedema Volume change (210 min): -90.7%
- % Oedema Volume change (220 min): -90.6%
- % Oedema Volume change (225 min): -89.8%
- % Oedema Volume change (240 min): -90.9%
- % Volume Increase, Mean of 3 experiments (0 min): 0.00%
- % Volume Increase, Mean of 3 experiments (5 min): 0.89%
- % Volume Increase, Mean of 3 experiments (10 min): 1.43%
- % Volume Increase, Mean of 3 experiments (15 min): 1.43%
- % Volume Increase, Mean of 3 experiments (20 min): 1.61%
- % Volume Increase, Mean of 3 experiments (30 min): 2.19%
- % Volume Increase, Mean of 3 experiments (40 min): 2.37%
- % Volume Increase, Mean of 3 experiments (45 min): 2.00%
- % Volume Increase, Mean of 3 experiments (50 min): 2.37%
- % Volume Increase, Mean of 3 experiments (55 min): 2.92%
- % Volume Increase, Mean of 3 experiments (60 min): 2.92%
- % Volume Increase (65 min): 2.92%
- % Volume Increase (70 min): 3.13%
- % Volume Increase, Mean of 3 experiments (75 min): 3.34%
- % Volume Increase, Mean of 3 experiments (80 min): 3.52%
- % Volume Increase, Mean of 3 experiments (85 min): 3.52%
- % Volume Increase, Mean of 3 experiments (90 min): 3.52%
- % Volume Increase (95 min): 3.52%
- % Volume Increase, Mean of 3 experiments (100 min): 3.33%
- % Volume Increase (105 min): 3.49%
- % Volume Increase, Mean of 3 experiments (110 min): 3.65%
- % Volume Increase (115 min): 3.78%
- % Volume Increase, Mean of 3 experiments (120 min): 3.90%
- % Volume Increase, Mean of 3 experiments (125 min): 3.71%
- % Volume Increase, Mean of 3 experiments (130 min): 3.35%
- % Volume Increase (135 min): 3.53%
- % Volume Increase, Mean of 3 experiments (145 min): 3.71%
- % Volume Increase, Mean of 3 experiments (150 min): 3.90%
- % Volume Increase, Mean of 3 experiments (160 min): 3.90%
- % Volume Increase, Mean of 3 experiments (170 min): 3.52%
- % Volume Increase (175 min): 3.70%
- % Volume Increase, Mean of 3 experiments (180 min): 3.88%
- % Volume Increase, Mean of 3 experiments (190 min): 3.34%
- % Volume Increase (200 min): 3.41%

Reference: patent US5539123A, “Low molecular weight thiocarbamates as inhibitors of elastase, uses and method of synthesis” (University of Kentucky Research Foundation, priority 1994, dated 1996)
